Test results reported in patent US6753337B2, “Alkynyl containing hydroxamic acid compounds as matrix metalloproteinase/tace inhibitors” (Wyeth Holdings Corporation, priority 1999, dated 2004).
Where a name gives a salt, the structure may show the parent alone.

Experiments:
MMP-13 = MMP-13 (Homo sapiens, UniProt P45452); assay: MMP-13 inhibition (thiopeptide or fluorescent peptide substrate); type: biochemical; settings: read-out: MMP13 IC50
How it was run: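 Human recombinant MMP-1, MMP-9 or MMP-13 was run either with a thiopeptide substrate plus DTNB (1 mM working dilution) in 50 mM HEPES pH 7.5, 5 mM CaCl2 (colorimetric), or with a quenched fluorescent peptide in HCBC buffer pH 7.0. Reactions started with substrate; the rate slope was compared with control by Dunnett's test.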

THP-1 cells = assay: Human monocytic THP-1 cell differentiation assay for soluble proteins (THP-1 soluble protein assay); type: cell-based; settings: LPS-stimulated THP-1 cells, soluble protein not given

Row | IC50 (MMP-13) | Structure (SMILES) | inhibition at 3 µM (THP-1 cells)
1 | 40 nM | CC#CCOc1ccc([S+]([O-])C2(C(=O)NO)CCN(C(=O)OC(C)(C)C)CC2)cc1 (stereo not drawn) [Example 80, tert-butyl 4-{[4-(but-2-ynyloxy)phenyl]sulfinyl}-4-[(hydroxyamino)carbonyl]piperidine-1-carboxalate] | -7%
2 | 593 nM | CC#CCOc1ccc([S+]([O-])C2(C(=O)NO)CCNCC2)cc1 (stereo not drawn) [Example 81, 4-(4-(But-2-ynyloxy-benzenesulfinyl)-piperidine-4-carboxylic acid hydroxamide hydrochloride] | 25%
3 | 62 nM | CC#CCOc1ccc([S+]([O-])C2(C(=O)NO)CCN(Cc3ccc(Br)cc3)CC2)cc1 (stereo not drawn) [Example 82, 1-(4-Bromo-benzyl)-4-(4-But-2-ynyloxy-benzenesulfinyl)-piperidine-4-carboxylic acid hydroxamide hydrochloride] | 16%
